Assay results: publication PMC12111564, “Extended Family of Thiophosphoryl-Appended Pd(II) Pincer Complexes with a Deprotonated Amide Core: Synthesis and Biological Evaluation” (International Journal of Molecular Sciences, 2025)

How the values were obtained:
[1] = system: hematopoietic cancer cells; assay: MTT cytotoxicity assay, hematopoietic cancer cells; type: cell-based, human; details: inactive at concentrations up to
Description: (§1) The cytotoxic activity of the complexes obtained was screened against several human solid and hematopoietic cancer cell lines using the conventional MTT assay. To evaluate their selectivity for cancerous over non-cancerous cells, analogous tests were performed with pseudonormal human embryonic kidney (HEK293) and breast epithelial (HBL100) cell lines.
(§2) The cytotoxicity of the compounds obtained was investigated on human colorectal carcinoma (HCT116), breast cancer (MCF7), prostate adenocarcinoma (PC3), glioblastoma (U251), ovarian adenocarcinoma (Scov3), chronic myelogenous leukemia (K562 and K562/iS9), multiple plasmacytoma (AMO1), and acute lymphoblastic leukemia (H9) cell lines, as well as human embryonic kidney (HEK293) and mammary epithelial (HBL100 and HBL100/Dox) cells used as non-cancerous cell lineages. All the cell lines were obtained from American Type Culture Collection (ATCC). The tested compounds were initially dissolved in DMSO. Cisplatin was obtained from a commercial source (as an infusion concentrate in natural saline solution). The experiments were performed using the conventional MTT assay (ICN Biomedicals, Eschwege, Germany) according to the previously published procedure.

[2] = system: solid cancer cells; assay: MTT cytotoxicity assay, solid cancer cells; type: cell-based, human; details: inactive at concentrations up to
Description: as §1, §2

[3] = system: Groenewaldozyma auringiensis (VKM Y-2927); assay: Agar well diffusion, G. auringiensis; type: cell-based
Description: (§3) The microbial strains Bacillus subtillis (VKM B-501), Micrococcus luteus (VKM Ac-2230), and Groenewaldozyma auringiensis (VKM Y-2927) were used for antimicrobial activity tests. All strains were obtained from the All-Russian Collection of Microorganisms (VKM) at the Skryabin Institute of Biochemistry and Physiology of Microorganisms, Pushchino Scientific Center of Biological Research. B. subtilis and M. luteus were grown on the following medium (g/L): aminopeptide 60 mL; tryptone 5.0 g; yeast extract 1.0 g; soybean extract 30 mL; bacto-agar 15.0 g; final pH 7.2. G. auringiensis was grown on malt extract medium containing the following medium (g/L): malt extract 12.75; dextrin 2.75; glycerol 2.35; gelatin peptone 0.78; bacto-agar 15; final pH 5.4. The antimicrobial activity of ligand 17 and its cyclopalladated derivative 18 (both in the racemic form) was studied by the agar well diffusion method. The overnight grown culture of each strain (100 µL) was applied to the surface of the solid medium, then spread on agar plates using a glass spreader, and left for 30 min. The wells were cut in the culture plates using a sterilized glass tube (4 mm in diameter), and each compound sample was dissolved in DMSO to a final concentration of 0.25 or 2.5 mM (10 µL) and was placed in each well. After this, the plates were kept at room temperature for 3 h to improve the diffusion of the compounds and incubated at 28 °C for 24 h. DMSO (15%) was used as a negative control, while kanamycin (50 mg/mL) was used as a positive control. The antimicrobial activity was determined by measuring the inhibition zone around each well as a mean of three replicates.

[4] = system: Bacillus subtillis (VKM B-501); assay: Agar well diffusion, B. subtillis; type: cell-based
Description: as §3

[5] = system: Micrococcus luteus (VKM Ac-2230); assay: Agar well diffusion, M. luteus; type: cell-based
Description: as §3

[6] = system: prostate adenocarcinoma (PC3); assay: MTT cytotoxicity assay, PC3; type: cell-based, human; details: 48 h exposure, read-out: IC50 ± SD, PC3
Description: as §1, §2

[7] = system: human embryonic kidney (HEK293); assay: MTT cytotoxicity assay, HEK293; type: cell-based; details: 48 h exposure, non-cancerous cells, read-out: IC50 ± SD, HEK293
Description: as §1, §2

[8] = Stability in DMSO solution by 31P NMR monitoring; type: physicochemical; details: at least for several days
Description: The identities and structures of both free amides 2–8 and their cyclopalladated derivatives were unambiguously confirmed based on the IR and multinuclear NMR spectroscopic data (including different 2D NMR techniques), as well as elemental analyses, which are presented in detail in Section 3 (Materials and Methods) and Figures S1–S31 in the Supporting Information (SI). The realization of metalation of the central secondary amide unit in the resulting complexes was supported by the lack of NH proton singlets in the ^1H NMR spectra, as well as the absence of amide II and amide A bands in the IR spectra. The coordination of the thiophosphoryl pendant arm was evidenced by a strong downfield shift of the phosphorus resonance (ΔδP = 8.1–17.4 ppm) and the displacement of the P=S bond stretches towards lower frequencies, which reached up to 65 cm^−1. The coordination of the additional N- or S-donor unit was indirectly indicated by considerable shifts of the signals of CH/CH3 protons or quaternary carbon nuclei located in the close proximity to the heteroatom (for example, ΔδH for the methyl substituent in the thioether group of 13a,b was more than 0.65 ppm, while a coordination shift of the proton signal, corresponding to the CH unit adjacent to the nitrogen atom of the pyridine ring of 9, composed 0.45 ppm).

[9] = system: mammary epithelial cells HBL100; assay: MTT cytotoxicity assay, HBL100; type: cell-based, human; details: 48 h exposure, non-cancerous cells, read-out: IC50 ± SD, HBL100
Description: as §1, §2

[10] = system: doxorubicin-resistant mammary epithelial cells HBL100/Dox; assay: MTT cytotoxicity assay, HBL100/Dox; type: cell-based, human; details: 48 h exposure, doxorubicin-resistant clone, read-out: IC50 ± SD, HBL100/Dox
Description: as §1, §2

[11] = system: breast cancer (MCF7); assay: MTT cytotoxicity assay, MCF7; type: cell-based, human; details: 48 h exposure, read-out: IC50 ± SD, MCF7
Description: as §1, §2

[12] = system: human colorectal carcinoma (HCT116); assay: MTT cytotoxicity assay, HCT116; type: cell-based; details: 48 h exposure, read-out: IC50 ± SD, HCT116
Description: as §1, §2

[13] = system: doxorubicin-resistant mammary epithelial cells HBL100/Dox; details: cited from earlier work
[14] = system: doxorubicin-resistant subline of chronic myelogenous leukemia cells (K562/iS9); details: cited from earlier work
[15] = system: multiple plasmacytoma (AMO1); assay: MTT cytotoxicity assay, AMO1; type: cell-based, human; details: 48 h exposure, read-out: IC50 ± SD, AMO1
Description: as §1, §2

[16] = system: K562/iS9 cells; assay: Apoptosis induction, Annexin V-FITC/PI flow cytometry, K562/iS9; type: cell-based, human; details: 10 μM, 20 h
Description: (§4) To our delight, in general the biological profile of complex (R)-18 appeared to be close to that of the previously reported phenyl-substituted counterpart (compare entries 10 and 1 in Table 1 and entries 6 and 1 in Table 2), with a lower activity on HCT116 and PC3 cells but remarkably higher selectivity towards K562 cells over non-cancerous HEK293 cells. […] The total percentage of early (lower right quadrant) and late (upper right quadrant) apoptotic cells for (R)-18 on K562/iS9 subline was even higher than in the parental cells. These findings prompted us to gain further insight into the bioactivity of the Pd(II) pincer complexes of thiophosphoryl-functionalized amides from the viewpoint of their potential to overcome drug resistance.
(§5) The apoptosis-inducing ability of enantiomerically pure and racemic complexes 18 was studied on K562 and K562/iS9 cells that were cultured in a medium containing 10 μM of the tested palladocycle for 20 h. The experiments were performed following the published procedure. The analysis was carried out on a FACScan flow cytometer (Becton Dickinson, Franklin Lakes, NJ, USA) using the CellQuest software (version 3.3).

[17] = system: acute lymphoblastic leukemia (H9); assay: MTT cytotoxicity assay, H9; type: cell-based, human; details: 48 h exposure, read-out: IC50 ± SD, H9
Description: as §1
as §2, with “Cisplatin was obtained from a commercial source (as an infusion concentrate in natural saline solution).” left out

[18] = system: K562 cells; assay: Apoptosis induction, Annexin V-FITC/PI flow cytometry, K562; type: cell-based, human; details: 10 μM, 20 h
Description: as §4, §5

[19] = system: doxorubicin-resistant subline of chronic myelogenous leukemia cells (K562/iS9); assay: MTT cytotoxicity assay, K562/iS9; type: cell-based, human; details: 48 h exposure, read-out: IC50 ± SD, K562/iS9
Description: as §1, §2

[20] = system: chronic myelogenous leukemia (K562); assay: MTT cytotoxicity assay, K562; type: cell-based, human; details: 48 h exposure, read-out: IC50 ± SD, K562
Description: as §1, §2

[21] = biological target: T1, P-glycoprotein (P-gp) (Homo sapiens, UniProt P08183); assay: P-gp functional activity, Rh123 efflux from K562/iS9 cells; type: cell-based; details: 20 μM of complex, 37 °C, 30 min, flow cytometry
T1 construct: We assessed the efflux of the fluorescent dye Rhodamine 123 (Rh123) from cells with a high P-gp content—K562/iS9 cells; endogenous in cells; host or cells: K562/iS9 (doxorubicin-resistant subline of K562)
Description: We assessed the efflux of the fluorescent dye Rhodamine 123 (Rh123) from cells with a high P-gp content—K562/iS9 cells [31].
The functional activity of P-gp was evaluated by the method described earlier [40]. K562/iS9 cells (3 × 10^6) were incubated for 15 min in a culture medium containing 5 μg/mL of Rh123 (Sigma-Aldrich, St. Louis, MO, USA). After incubation, the cells were washed twice and divided into several fractions. […] The incubation was carried out in the full culture medium at 37 °C for 30 min. […] The cell fluorescence was evaluated using a flow cytometer (Becton Dickinson). The results were analyzed using the CellQuest software.

[22] = system: ovarian adenocarcinoma (Scov3); assay: MTT cytotoxicity assay, Scov3; type: cell-based, human
Description: as §1, §2

[23] = system: glioblastoma (U251); assay: MTT cytotoxicity assay, U251; type: cell-based, human
Description: as §1, §2

[24] = agar well diffusion, 0.25 or 2.5 mM, racemic form
[25] = 0.25 mM, 10 µL per well, 28 °C, 24 h
[26] = 2.50 mM, 10 µL per well, 28 °C, 24 h

T1 sequence (P08183 whole entry): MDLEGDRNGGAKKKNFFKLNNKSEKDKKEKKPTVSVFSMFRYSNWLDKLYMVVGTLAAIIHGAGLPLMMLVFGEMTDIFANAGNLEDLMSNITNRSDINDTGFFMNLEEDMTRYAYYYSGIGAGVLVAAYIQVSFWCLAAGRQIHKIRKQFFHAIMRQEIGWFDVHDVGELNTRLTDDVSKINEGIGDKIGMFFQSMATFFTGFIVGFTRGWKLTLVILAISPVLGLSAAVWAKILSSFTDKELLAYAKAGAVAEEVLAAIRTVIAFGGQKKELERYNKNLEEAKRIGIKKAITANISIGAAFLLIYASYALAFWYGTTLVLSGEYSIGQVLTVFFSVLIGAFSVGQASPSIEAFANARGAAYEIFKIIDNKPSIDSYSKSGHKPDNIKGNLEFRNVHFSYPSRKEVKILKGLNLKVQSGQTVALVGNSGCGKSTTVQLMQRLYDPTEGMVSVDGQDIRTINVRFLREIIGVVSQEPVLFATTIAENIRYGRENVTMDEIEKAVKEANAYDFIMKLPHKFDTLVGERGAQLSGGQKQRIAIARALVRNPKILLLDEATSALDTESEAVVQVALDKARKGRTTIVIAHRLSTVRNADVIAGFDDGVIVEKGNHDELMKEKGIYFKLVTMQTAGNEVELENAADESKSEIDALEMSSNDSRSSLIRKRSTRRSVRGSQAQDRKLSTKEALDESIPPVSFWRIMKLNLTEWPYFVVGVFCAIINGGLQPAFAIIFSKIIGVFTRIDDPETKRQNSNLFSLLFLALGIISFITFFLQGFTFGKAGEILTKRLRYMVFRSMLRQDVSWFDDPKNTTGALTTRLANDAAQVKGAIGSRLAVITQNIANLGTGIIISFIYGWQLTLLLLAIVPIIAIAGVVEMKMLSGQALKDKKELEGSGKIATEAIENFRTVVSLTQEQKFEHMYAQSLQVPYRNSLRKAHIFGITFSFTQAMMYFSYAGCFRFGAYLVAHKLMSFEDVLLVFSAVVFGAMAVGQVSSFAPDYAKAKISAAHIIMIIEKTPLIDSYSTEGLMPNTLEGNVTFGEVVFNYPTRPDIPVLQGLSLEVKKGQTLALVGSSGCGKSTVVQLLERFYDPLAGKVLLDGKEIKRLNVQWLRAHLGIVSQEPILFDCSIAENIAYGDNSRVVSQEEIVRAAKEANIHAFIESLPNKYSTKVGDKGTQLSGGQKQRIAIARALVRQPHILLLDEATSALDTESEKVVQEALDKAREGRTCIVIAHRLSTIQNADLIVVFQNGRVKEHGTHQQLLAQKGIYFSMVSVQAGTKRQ

In the case of N#Cc1ccccc1.N#Cc1ccccc1.[Cl][Pd][Cl] [PdCl2(NCPh)2], the “concentration up to which inactive, hematopoietic cancer cells” value [1] is reported as > 40 µM and the “concentration up to which inactive, solid cancer cells” value [2] is reported as > 60 µM.

For CC(C)C(NC(=O)c1ccccn1)P(=S)(c1ccccc1)c1ccccc1 (stereo not shown) [Compound 17], the “inhibitory effect on microorganisms, G. auringiensis” value [3, 24] was “did not exert any inhibitory effect”, the “inhibitory effect on microorganisms, B. subtillis” value [4, 24] was “did not exert any inhibitory effect” and the “inhibitory effect on microorganisms, M. luteus” value [5, 24] was “did not exert any inhibitory effect”.

For O=C1c2ccc3ccccc3[n+]2[Pd-2]2([Cl])[S+]=P(c3ccccc3)(c3ccccc3)C[N]12 (stereo not shown) [Compound 10b, [κ^3-S,N,N-(L)Pd(II)Cl] complex], the IC50 [6] was 23 ± 1 µM, the IC50 [7] was 20 ± 4 µM and the “stability in solution (DMSO)” value [8] was “stable in solution”. For the same molecule, the IC50 [9] was 34.2 ± 2.8 µM, the IC50 [10] was 46 ± 1.4 µM and the IC50 [11] was 31 ± 2 µM. The IC50 [12] was 14 ± 4 µM.

In the case of NC[C@H]1O[C@H](O[C@H]2[C@H](O)[C@@H](O[C@H]3O[C@H](CO)[C@@H](O)[C@H](N)[C@H]3O)[C@H](N)C[C@@H]2N)[C@H](O)[C@@H](O)[C@@H]1O [Km, kanamycin, reference compound], the “Inhibition Zone, G. auringiensis (VKM Y-2927)” value (from here on “Inhibition Zone … (VKM Y-2927)”) ([3]; 50 mg/mL, positive control) is reported as 0 mm, the “Inhibition Zone, B. subtillis (VKM B-501)” value ([4]; 50 mg/mL, positive control) is reported as 10.0 ± 0.8 mm and the “Inhibition Zone, M. luteus (VKM Ac-2230)” value ([5]; 50 mg/mL, positive control) is reported as 15.0 ± 1.0 mm.

For COc1cccc2c1C(=O)c1c(O)c3c(c(O)c1C2=O)C[C@@](O)(C(=O)CO)C[C@@H]3O[C@H]1C[C@H](N)[C@H](O)[C@H](C)O1 [doxorubicin], the “times less active against the resistant clone (HBL100/Dox vs HBL100)” value [13] is listed as “more than 80 times” and the “factor of decrease in efficiency, K562/iS9 vs parental K562” value [14] is listed as 20.

Work on CC(C)C1[N]2C(=O)c3cccc[n+]3[Pd-2]2([Cl])[S+]=P1(c1ccccc1)c1ccccc1 (racemic) [Compound 18] yielded an IC50 [15] of 3 ± 1.2 µM, an IC50 [6] of 11.5 ± 1.5 µM and an IC50 [7] of 9.5 ± 1.8 µM. The “Inhibition Zone … (VKM Y-2927)” value [3, 25] was 0 mm, the “Inhibition Zone … (VKM Y-2927)” value [3, 26] was 0 mm and the “percentage of necrotic cells (upper left), K562/iS9” value [16] was 0.4%. For the same molecule, the IC50 [17] was 3.4 ± 0.1 µM, the IC50 [9] was 14 ± 1.4 µM and the “Inhibition Zone, B. subtillis (VKM B-501)” value [4, 25] was 0.5 ± 0.2 mm. The “Inhibition Zone, B. subtillis (VKM B-501)” value [4, 26] was 0.5 ± 0.2 mm, the “Inhibition Zone, M. luteus (VKM Ac-2230)” value [5, 25] was 0.5 ± 0.3 mm and the “Inhibition Zone, M. luteus (VKM Ac-2230)” value [5, 26] was 4.0 ± 0.5 mm. The “percentage of necrotic cells (upper left), K562” value [18] was 0.2%, the IC50 [19] was 6.4 ± 1.7 µM and the IC50 [10] was 23.3 ± 2.7 µM. The IC50 [20] was 4.8 ± 1.2 µM, the IC50 [11] was 19.2 ± 1.3 µM and the IC50 [12] was 9.2 ± 1.8 µM.

For COc1cc2c(cc1OC)CN(CCc1ccc(NC(=O)c3cccc4c(=O)c5cccc(OC)c5[nH]c34)cc1)CC2 [elacridar], the “effect on Rh123 efflux / interaction with P-gp” value [21] was “almost completely blocks the efflux of Rh123”.

In the case of O=C1c2cc(Cl)cc[n+]2[Pd-2]2([Cl])[S+]=P(c3ccccc3)(c3ccccc3)C(c3ccccc3)[N]12 (racemic) [Compound 9, [κ^3-S,N,N-(L)Pd(II)Cl] complex], the IC50 [15] is reported as 2.4 ± 0.6 µM, the IC50 [6] is reported as 8 ± 0.5 µM and the IC50 [7] is reported as 10 ± 4 µM. The “stability in solution (DMSO)” value [8] was “stable in solution”, the IC50 [17] was 3.2 ± 0.4 µM and the IC50 [22] was 8 ± 0.7 µM. For the same molecule, the IC50 [9] was 6.5 ± 1.5 µM, the IC50 [19] was 6.2 ± 1.8 µM and the IC50 [23] was 9 ± 1 µM. For the same molecule, the IC50 [10] was 10.5 ± 1.5 µM, the IC50 [20] was 8 ± 1.5 µM and the IC50 [11] was 6.2 ± 2 µM. For the same molecule, the IC50 [12] was 7 ± 0.5 µM.
